Like-named read-outs stand apart in the source and are kept apart here.
What was measured:
HeLa (cervical cancer) = assay: Cytocidal action/growth inhibition, HeLa; type: cell-based; conditions: Homo sapiens, 72 h
Protocol: (§1) Seven human cancer cell lines were obtained from the American Tissue Culture Collection (Rockville, Md.) and maintained in the recommended growth media. Cells were seeded into wells (2 cm^2) at a density of 2×10^4 cells/cm^2. Various concentrations of Compounds 1-13 were added to the media at the time of seeding.
(§2) The cultures were incubated for 72 hours at 37° C. (5% CO2 atmosphere). Following incubation, cells were detached with trypsin and counted in a hemocytometer.
(§3) I100 designates the concentration at which no viable cells remained; I50 the concentration at which 50% viable cells remained, as compared to a control.
(§4) E-ras 20 cells were cultured as reported, Bauer et al., 1996, "Modification of growth related enzymatic pathways and apparent loss of tumorigenicity of a ras-transformed bovine endothelial cell line by treatment with 5-iodo-6-amino-1,2-benzopyrone (INH2 BP)" Intl. J. Oncol. 8:239-252; HT-144 (melanoma), DU-145 (prostatic cancer), HeLa (cervical cancer), HL 60 (promyelocytic leukemia), MDA-MB-231 (mammary cancer), SK-Br-3 (mammary cancer), T47D (ductal mammary cancer), A559 (lung cancer) were obtained from American Type Culture Collection (Rockville, Md.) and cultured in prescribed media. The effect of DIME was tested in cultures with a starting cell density of 2×10^4 cells per cm^2 and comparison of the effect of DIME on cell growth (intact cells identified by Trypan blue exclusion) was assayed by direct cell counting after trypsinization in a hemocytometer 72 hours after drug addition.
For DIME-exposure experiments cells were seeded into 2 cm^2 wells at a density of 2×10^4 cells/cm^2. DIME at various concentrations was added to the medium at the time of seeding. The cell cultures were then incubated for 3 days (37° C. in 5% at CO2 atmosphere).

MDA-MB-231 cells [1] = assay: Chromosome analysis by in situ hybridization; type: cell-based, human; conditions: 1 μM
Protocol: (§5) The MDA-MB-231 cell line was obtained from ATCC (Rockville, Md., USA) and cells were cultured in T-75 flasks at 37° C. in Minimum Essential Medium-alpha, supplemented with 10% FCS. In controls, not receiving DIME, 0.1 μg/ml colcemid was added to cultures for 4 hrs prior to the collection of metaphase-blocked cells and preparation of cell spreads. […] Cells (10^7) were isolated from T-75 trypsinization for 5 min with 0.025% trypsin, and sedimented by centrifugation, resuspended and kept in 10 ml of 75 mM KC1 at 37° C. for 10 min, resedimented, and fixed in 10 ml methanol-acetic acid, with four successive changes of methanol-acetic acid. An aliquot of the final cell suspension (100 μl) was dropped on ethanol-cleaned slides and air-dried.
Human chromosome-specific probes were produced by ONCOR (Gaithersburg, Md., USA). Hybridization was accomplished by a modification of the procedure described by Pinkel et al., 1986, "Cytogentic Analysis Using Quantitative High-Sensitivity Fluorescence Hybridization," Proc. Natl. Acad. Sci. U.S.A. 83:2934-2938. The slide-mounted cells were treated with pepsin (20 μg/ml in 0.01 N HCl) at 37° C. for 10 min and then dehydrated in a 70%, 85% and 100% ethanol series, then DNA was denatured by immersion in 70% formamide, followed by 2X standard saline citrate (IX SSC is […], 0.015 M sodium citrate, pH 7.0) for 2 min. at 70° C., and dehydrated in ethanol as described above. The hybridization mixture in a 10 μl total volume consisted of 50% formamide, 2X SSC, 10% dextran sulfate, 0.5 μg herring sperm DNA, and 1-5 μg of proteinase K-treated human placental DNA. Both herring sperm DNA and human placental DNA were previously sonicated to 200-600 bp fragments, and -40 ng of digoxigeninylated probe DNA (denatured at 70° C. for 5 min) added, and incubated at 37° C. for 1 hr. This mixture was placed on slides containing the fixed cells, sealed under a coverslip, and incubated at 37° C. for 2 to 3 days. […] The slides were viewed in a Zeiss fluorescence microscope equipped with a multiple band pass filter (Chroma Technology, Brattleboro, Vt., USA) to determine the number of FISH signals in each nucleus.

[2] = test system: HL-60 (promyelocytic leukemia); assay: Cytocidal action/growth inhibition, HL-60; type: cell-based; conditions: Homo sapiens, 72 h
Protocol: as §1, §2, §3
as §4, with “The effect of DIME was tested in cultures with a starting cell density of 2×10^4 cells per cm^2 and comparison of the effect of DIME on cell growth (intact cells identified by Trypan blue exclusion) was assayed by direct cell counting after trypsinization in a hemocytometer 72 hours after drug addition.” left out

MDA-MB-231 cells [3] = assay: Flow cytometry / M phase block; type: cell-based, human
Protocol: as §5
Cells exposed to different treatments were grown to confluence, trypsinized, and washed with phosphate buffered saline (PBS). For nuclear analysis, cells were fixed in Vindelov Citrate cell buffer: sucrose 250 mM, trisodium citrate. 2H20 40 mM, DMSO 50 ml in 1000 ml solution, pH 7.6. Normal human lymphocytes obtained from blood were used as controls. Each cell sample and control was counted with a hemacytometer and the cell concentration was adjusted to 2×10^6 cells/ml. Two million cells from each cell line in a total volume of 2 ml were washed twice with fresh PBS, treated with 200 μg/ml RNAase at 37° C. for 30 min, and stained with 10 μg/ml propidium iodide for 45 min. Flow cytometric analysis was performed on a FACScan benchtop flow cytometer (Becton-Dickinson, San Jose, Calif., USA) equipped with an air-cooled argon laser tuned to 488 nm. Twenty thousand events were collected as six parameter list mode data for analysis and archival storage. Two light scatter parameters (forward and side), propidium iodide fluorescence measured at 575/26 nm and above 620 nm, and doublet discrimination by fluorescence pulse width and area were acquired at 1024 data channel resolution. Acquisition threshold was set on propidium iodide positive events above channel 100. Gating to exclude small debris, large clumps and cell doublets was done post acquisition.

A-549 cells = assay: DIME action on A-549 cells with esterase inhibitor BNPP; type: cell-based, human; conditions: with bis[p-nitrophenyl] phosphate
[4] = Table 4, read-out: I100 (no viable cells remained)

COC(=O)c1cc(I)c(Oc2ccc(OC)cc2)c(I)c1 [Compound 1, Methyl 3,5-diiodo-4-(4'-methoxyphenoxy)benzoate]
IC50 (HeLa (cervical cancer); Table 4, read-out: I50): 600 nM
IC100 (HeLa (cervical cancer); [4]): 3.5 µM
IC50 (HeLa (cervical cancer); day 3, Table 11, read-out: I50 (day 3)): 600 nM
effect on chromosomes (in situ hybridization) (MDA-MB-231 cells [1]; 18 hrs): no detectable effect
chromosome breakage (MDA-MB-231 cells [1]; 5 days): No evidence for chromosome breakage
chromosome-19 signals (MDA-MB-231 cells [1]; 5 days, some cells): about 40 chromosome-19 signals
chromosomes per cell (MDA-MB-231 cells [1]; 5 days, some cells): over 100 chromosomes
IC50 ([2]; Table 4, read-out: I50): 600 nM
IC100 [2, 4]: 3 µM
M phase block (nuclei with G2 content of DNA) (MDA-MB-231 cells [3]; 18 hrs of drug exposure): nuclei with a G2 content of DNA had accumulated, indicating M phase block
cell cycle block in M phase, comparison of DIME and colcemid (MDA-MB-231 cells [3]; colcemid 0.1 μg/ml, 4 hrs): indistinguishable with respect to the cell cycle block in M phase
cell killing with esterase inhibition (A-549 cells): much more effective cell killing

From US6017958A, “Method of treating malignant tumors with thyroxine analogues having no significant hormonal activity” (Octamer, Inc., priority 1997, dated 2000)
